Data reported in publication PMC4437027, “New ambuic acid derivatives from the solid culture of Pestalotiopsis neglecta and their nitric oxide inhibitory activity” (Scientific Reports, 2015).
Like-named read-outs stand apart in the source and are kept apart here.

How the values were obtained:
[1] = system: NO production in LPS-induced macrophages (RAW 264.7); test: Inhibition of NO production in LPS-induced macrophages (RAW 264.7), nitrite accumulation; format: cell-based; details: Mus musculus
From the text: Mouse monocyte-macrophages RAW 264.7 (ATCC TIB-71) were purchased from the Chinese Academy of Science. RPMI 1640 medium, penicillin, streptomycin, and fetal bovine serum were purchased from Invitrogen (NewYork, USA). Lipopolysaccharide (LPS), DMSO, 3-(4,5-dimethylthiazol-2-yl)-2,5-diphenyl-2H-tetrazolium bromide (MTT), and hydrocortisone were obtained from Sigma Chemical Co. (Saint Louis, MO, U.S.A). RAW 264.7 cells were kept in RPMI 1640 medium supplemented with penicillin (100 U/mL), streptomycin (100 μg/mL), and 10% heat-inactivated fetal bovine serum at 37°C in a humidified incubator with 5% CO2 and 95% air. RAW 264.7 cells were passaged by trypsinization until they attained confluence and were used for assays during the exponential growth phase.
Compounds 1, 4–8 were dissolved in DMSO and were further diluted with the culture medium to give a final DMSO concentration of 0.2% in the assay. This concentration of DMSO had no significant effect on the growth of the cell line tested. The procedure of NO inhibition assay was conducted as previously reported. The level of NO was assessed by measuring the accumulation of nitrite (NO2^−) using the same method as previously reported. Cytotoxicity was measured using the 3-(4,5-dimethylthiazol-2-yl)-2.5-diphenyltetrazolium bromide (MTT) assay method. The inhibition rate was calculated based on the following equation (1).

Helminthosporium sativum = system: Helminthosporium sativum; set-up: method as in PMID 11261579; details: cited from earlier work
Fusarium solani = system: Fusarium solani; set-up: method as in PMID 11261579; details: cited from earlier work
[2] = system: biosynthesis of cyclic peptide quormones in Enterococcus faecalis; details: Gram-positive bacteria Enterococcus faecalis; cited from earlier work
Fusarium cubense = system: Fusarium cubense; set-up: method as in PMID 11261579; details: cited from earlier work
Diplodia natelensis = system: Diplodia natelensis; set-up: method as in PMID 11261579; details: cited from earlier work
Staphyococcus aureus = system: Staphyococcus aureus; set-up: method as in PMID 19117486; details: Gram-positive bacterium Staphyococcus aureus; cited from earlier work
Cephalosporium gramineum = system: Cephalosporium gramineum; set-up: method as in PMID 11261579; details: cited from earlier work
Pythium ultimum = system: Pythium ultimum; set-up: method as in PMID 11261579; details: cited from earlier work
[3] = RAW264.7, LPS-induced RAW 264.7 macrophages, read-out: NO inhibitory activity (IC50)

Question: With `CCCCC/C=C/C1=C(COC(C)=O)[C@@H](O)[C@H]2O[C@@]2(C/C=C(\C)C(=O)O)C1=O` [Compound 6] as the compound, how does the IC50 [1, 3] read?
Answer: 11.2 ± 0.79 µM

Question: For `CCCCC/C=C/C1=C(COC(C)=O)[C@@H](O)[C@H]2O[C@@]2(C/C=C(\C)C(=O)O)[C@H]1O` [Compound 4], which IC50 [1, 3] is on record?
Answer: 88.7 ± 6.74 µM

Question: With `CCCCC/C=C/C1=C(CO)C(=O)C[C@](O)(C/C=C(\C)C(=O)O)[C@H]1O` [Compound 8] as the compound, how does the IC50 [1, 3] read?
Answer: > 100 µM

Question: With `CCCCC/C=C/C1=C(CO)[C@@H](O)[C@H]2O[C@@]2(C/C=C(\C)C(=O)O)[C@H]1O` [Compound 5] as the compound, how does the IC50 [1, 3] read?
Answer: > 100 µM

Question: What does the source list for `CCCCC/C=C/C1=C(CO)[C@H](O)[C@H]2O[C@@]2(C/C=C(\C)C(=O)O)C1=O` [Compound 7, Ambuic acid]?
Answer: Antifungal effect (Helminthosporium sativum): moderate antifungal effects; Antifungal effect (Fusarium solani): moderate antifungal effects; IC50 [1, 3]: 20.8 ± 1.41 µM; Inhibition of biosynthesis of cyclic peptide quormones [2]: inhibits the biosynthesis of cyclic peptide quormones; Antifungal effect (Fusarium cubense): moderate antifungal effects; Antifungal effect (Diplodia natelensis): moderate antifungal effects; Antimicrobial effect (Staphyococcus aureus): antimicrobial; Antifungal effect (Cephalosporium gramineum): moderate antifungal effects; Antifungal effect (Pythium ultimum): moderate antifungal effects

Question: For `C[C@]12CCC(=O)C=C1CC[C@@H]1[C@@H]2[C@@H](O)C[C@@]2(C)[C@H]1CC[C@]2(O)C(=O)CO` [Hydrocortisone, hydrocortisone, reference compound], which IC50 ([1]; RAW264.7, read-out: NO inhibitory activity (IC50)) is on record?
Answer: 53.7 ± 3.86 µM

Question: With `CC(=CCC12OC1C(O)C(CO)=C(C=CCCCC(C)O)C2=O)C(=O)O` (stereo not drawn) [Compound 1] as the compound, how does the IC50 [1, 3] read?
Answer: > 100 µM
